According to patent publication US9079913B2, “Spiro-oxindole MDM2 antagonists” (The Regents of the University of Michigan, priority 2009, dated 2015):
Where two headings read alike, the source gives them in different places. Values belong to the compound of their own block, whether it stands above or below them.

Columns and labels:
[1] = test system: cancer cell lines with wild-type p53 / mutated or deleted p53 (ATCC); assay: Cell growth assay (WST-8), other cancer cell lines; type: cell-based
[2] = In vitro microsomal stability, rat; type: in vitro ADME
[3] = test system: Isogenic HCT-116 colon cancer cell lines; assay: cells; type: cell-based; details: Homo sapiens;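 further: cells grown in 96-well plates in McCoy's 5A medium with 10% FBS, exposed to compound for 4 days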
Procedure: Cells were seeded in 96-well flat bottom cell culture plates at a density of 2−3×10^3 cells/well with compounds and incubated for 4 days.

[4] = Homo sapiens, LNCaP, read-out: LNCAP (p53 wild-type) IC50
[5] = Homo sapiens, PC-3, read-out: PC-3 (deleted p53) IC50
[6] = Homo sapiens, LNCaP, Table 19A, LNCAP cells, p53 wild-type, cell growth, read-out: LNCAP (p53 wild-type) IC50
[7] = Homo sapiens, PC-3, Table 19A, PC-3 cells, deleted p53, cell growth, read-out: PC-3 (deleted p53) IC50
[8] = Homo sapiens, SJSA-1, Table 19A, SJSA-1 cells, p53 wild-type, cell growth, read-out: SJSA-1 (p53 wild-type) IC50
[9] = HCT-116, read-out: HCT-116 (p53-/-) IC50, Table 19A, HCT-116 p53-/-, cell growth
[10] = HCT-116, read-out: HCT-116 (p53 wild-type) IC50, Table 19A, HCT-116 p53 wild-type, cell growth
[11] = Homo sapiens, SJSA-1, read-out: SJSA-1 (p53 wild-type) IC50
[12] = HCT-116, read-out: HCT-116 (p53 wild-type) IC50

SMILES: CC(C)(C)C[C@H]1N[C@@H](C(=O)N[C@H]2CC[C@H](O)C2)[C@H](c2cccc(Cl)c2F)[C@@]12C(=O)Nc1cc(Cl)ccc12 [MI-519-51-epi]
IC50 [1, 4]: < 2000 nM
IC50 [1, 5]: > 10000 nM

SMILES: CC(C)(C)C[C@H]1N[C@@H](C(=O)NCCCN2CCN(C3CC3)CC2)[C@H](c2cccc(Cl)c2F)[C@@]12C(=O)Nc1cc(Cl)ccc12 [MI-519-48]
% of compound remaining when incubated in rat liver microsomes ([2]; Table 17, 0 min): 100%
% of compound remaining when incubated in rat liver microsomes ([2]; Table 17, 4 min): 79.8%
% of compound remaining when incubated in rat liver microsomes ([2]; Table 17, 6 min): 64.8%
% of compound remaining when incubated in rat liver microsomes ([2]; Table 17, 10 min): 48.5%
% of compound remaining when incubated in rat liver microsomes ([2]; Table 17, 15 min): 45.2%
% of compound remaining when incubated in rat liver microsomes ([2]; Table 17, 30 min): 43.7%

SMILES: CC(C)(C)C[C@H]1N[C@@H](C(=O)NCCCNS(C)(=O)=O)[C@H](c2cccc(Cl)c2F)[C@@]12C(=O)Nc1cc(Cl)c(F)cc12 [MI-768]
IC50 [1, 6]: 700 ± 200 nM
IC50 [1, 7]: 7300 ± 800 nM
IC50 [1, 8]: 800 ± 100 nM
IC50 [3, 9]: 9800 ± 400 nM
IC50 [3, 10]: 500 ± 200 nM

% of compound remaining when incubated in rat liver microsomes ([2]; Table 16, 0 min): 100%
% of compound remaining when incubated in rat liver microsomes ([2]; Table 16, 4 min): 76%
% of compound remaining when incubated in rat liver microsomes ([2]; Table 16, 6 min): 57.9%
% of compound remaining when incubated in rat liver microsomes ([2]; Table 16, 10 min): 35.4%
% of compound remaining when incubated in rat liver microsomes ([2]; Table 16, 15 min): 27.7%
% of compound remaining when incubated in rat liver microsomes ([2]; Table 16, 30 min): 21%
SMILES: CC(C)(C)CC1NC(C(=O)NCCN2CCOCC2)C(c2cccc(Cl)c2F)C12C(=O)Nc1cc(Cl)ccc12 (stereo not drawn) [MI-63]

SMILES: CC(C)(C)C[C@@H]1N[C@@H](C(=O)N[C@H]2C[C@@](C)(O)C2)[C@H](c2cccc(Cl)c2F)[C@]12C(=O)Nc1cc(Cl)ccc12 [MI-519-6401]
IC50 [1, 4]: 300 nM
IC50 [1, 5]: 10500 nM
IC50 [1, 11]: 400 nM
IC50 [3, 12]: 100 nM

SMILES: CC(C)(C)C[C@H]1N[C@@H](C(=O)NCCCN2CCCC2)[C@H](c2cccc(Cl)c2F)[C@@]12C(=O)Nc1cc(Cl)ccc12 [MI-519-43]
IC50 [1, 6]: 1000 nM
IC50 [1, 7]: 3400 nM
IC50 [1, 8]: 900 ± 100 nM
% of compound remaining when incubated in rat liver microsomes ([2]; Table 17, 0 min): 100%
% of compound remaining when incubated in rat liver microsomes ([2]; Table 17, 4 min): 92.3%
% of compound remaining when incubated in rat liver microsomes ([2]; Table 17, 6 min): 86.1%
% of compound remaining when incubated in rat liver microsomes ([2]; Table 17, 10 min): 70.6%
% of compound remaining when incubated in rat liver microsomes ([2]; Table 17, 15 min): 69.9%
% of compound remaining when incubated in rat liver microsomes ([2]; Table 17, 30 min): 62.5%
microsomal stability (in words) ([2]; rat liver microsomes): improved microsomal stability over MI-219
IC50 [3, 9]: 4100 ± 500 nM
IC50 [3, 10]: 900 nM

SMILES: CC(C)(C)C[C@H]1N[C@@H](C(=O)NC2CCC(O)CC2)[C@H](c2cccc(Cl)c2F)[C@@]12C(=O)Nc1cc(F)c(F)cc12 (stereo partly drawn) [MI-786]
IC50 ([1]; read-out: SJSA-1 (p53 wild-type) IC50): 800 nM

% of compound remaining when incubated in rat liver microsomes ([2]; Table 16, 0 min): 100%
% of compound remaining when incubated in rat liver microsomes ([2]; Table 16, 4 min): 77.2%
% of compound remaining when incubated in rat liver microsomes ([2]; Table 16, 6 min): 60.1%
% of compound remaining when incubated in rat liver microsomes ([2]; Table 16, 10 min): 48%
% of compound remaining when incubated in rat liver microsomes ([2]; Table 16, 15 min): 42.3%
% of compound remaining when incubated in rat liver microsomes ([2]; Table 16, 30 min): 34.1%
SMILES: CC(C)N1CCN(CCNC(=O)[C@@H]2N[C@H](CC(C)(C)C)[C@]3(C(=O)Nc4cc(Cl)ccc43)[C@H]2c2cccc(Cl)c2F)CC1 [MI-130]

SMILES: CC(C)(C)C[C@H]1N[C@@H](C(=O)N[C@H]2C[C@H](NS(C)(=O)=O)C2)[C@H](c2cccc(Cl)c2F)[C@@]12C(=O)Nc1cc(Cl)ccc12 [MI-519-61]
IC50 [1, 4]: < 3000 nM
IC50 [1, 11]: < 3000 nM
IC50 [3, 12]: < 3000 nM

SMILES: CC(C)(C)C[C@H]1N[C@@H](C(=O)NC2CC(OC(=O)CN)C2)[C@H](c2cccc(Cl)c2F)[C@@]12C(=O)Nc1cc(Cl)ccc12 (stereo partly drawn) [MI-519-69]
IC50 [1, 6]: < 5000 nM
IC50 [1, 7]: > 10000 nM
IC50 [1, 8]: < 5000 nM
IC50 [3, 9]: > 10000 nM
IC50 [3, 10]: < 5000 nM

% of compound remaining when incubated in rat liver microsomes ([2]; Table 16, 0 min): 100%
% of compound remaining when incubated in rat liver microsomes ([2]; Table 16, 4 min): 95.1%
% of compound remaining when incubated in rat liver microsomes ([2]; Table 16, 6 min): 88.1%
% of compound remaining when incubated in rat liver microsomes ([2]; Table 16, 10 min): 84.7%
% of compound remaining when incubated in rat liver microsomes ([2]; Table 16, 15 min): 82.1%
% of compound remaining when incubated in rat liver microsomes ([2]; Table 16, 30 min): 79%
SMILES: CC(C)(C)CC1NC(C(=O)NCCN2CCCC2)C(c2cccc(Cl)c2F)C12C(=O)Nc1cc(Cl)ccc12 (stereo not drawn) [MI-120]

SMILES: CC(C)(C)C[C@H]1N[C@@H](C(=O)NCCNS(C)(=O)=O)[C@H](c2cccc(Cl)c2F)[C@@]12C(=O)Nc1cc(Cl)c(F)cc12 [MI-769]
IC50 [1, 6]: 1500 nM
IC50 [1, 7]: 13000 nM
IC50 [1, 8]: 600 nM
IC50 [3, 9]: 10200 nM
IC50 [3, 10]: 1600 nM

SMILES: CC(C)(C)C[C@H]1N[C@@H](C(=O)NCC[C@H]2CC[C@H](N)C2)[C@H](c2cccc(Cl)c2F)[C@@]12C(=O)Nc1cc(Cl)c(F)cc12 [MI-767]
IC50 [1, 6]: 900 ± 200 nM
IC50 [1, 7]: 2200 ± 100 nM
IC50 [1, 8]: 900 ± 600 nM
IC50 [3, 9]: 2400 ± 1000 nM
IC50 [3, 10]: 700 ± 200 nM
